Some test systems named below: A498; COLO 205; DU-145; HL-60; HT-29; Hs-578T; M14; MDA-N; NCI-H522; OVCAR-3; OVCAR-8; PC-3; SF-268; SF-539; SK-MEL-5; SK-OV-3; SNB-19; UACC-62; UO-31; SR.
Common to all, as to assay: NCI anticancer screen, dose series, 48 h

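Exposure lasted 48 hours, with cells grown in 96-well plates and compounds tested at five concentrations. Here, GI50 denotes the concentration required for 50% inhibition of growth.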 Activity calls are given as the source filed them. Cut-off read from the data, not from the text of the source: active = GI50 up to about 1.1 µM and inactive = higher. Where only a bound is given, the exact number is not on record here.

Turning to `CC1=NNC(=O)[C@H]2[C@H]1CCC1[C@@H]2CC[C@]2(C)[C@@H](O)CC[C@@H]12` (some centres undefined), the GI50 with A498, with COLO 205, in the assay on DU-145, in the assay with HL-60, with HT-29 and in the assay with Hs-578T was > 100 µM (inactive) each time. Also, the GI50 in the assay with M14, with MDA-N, in the assay on NCI-H522, in the assay on OVCAR-3, in the assay with OVCAR-8 and with PC-3 was > 100 µM (inactive) throughout. Moreover, the GI50 in the assay on SF-268, in the assay with SF-539, in the assay on SK-MEL-5, with SK-OV-3, in the assay with SNB-19 and in the assay on UACC-62 was > 100 µM (inactive) each time. The GI50 in the assay on UO-31 is > 100 µM (inactive).
As for `c1ccc([P+](Cc2ccccc2C[P+](c2ccccc2)(c2ccccc2)c2ccccc2)(c2ccccc2)c2ccccc2)cc1`, the GI50 with A498 is > 100 µM (inactive); in the assay with COLO 205 it was > 100 µM (inactive); in the assay on DU-145, > 100 µM (inactive); in the assay with HL-60, 22.8 µM (inactive); with HT-29 it was 51.2 µM (inactive); with Hs-578T, > 100 µM (inactive). Further, the GI50 with M14 is > 100 µM (inactive); in the assay on MDA-N, 30.3 µM (inactive); in the assay with NCI-H522, > 100 µM (inactive); in the assay with OVCAR-3 it was 86.7 µM (inactive); with OVCAR-8, > 100 µM (inactive); in the assay on PC-3, > 100 µM (inactive). Moreover, the GI50 in the assay on SF-268 is > 100 µM (inactive); with SF-539 it was > 100 µM (inactive); in the assay with SK-MEL-5 it was > 100 µM (inactive); in the assay on SK-OV-3 it was > 100 µM (inactive); in the assay on SNB-19, 50.6 µM (inactive); with UACC-62, 44.2 µM (inactive). Also, the GI50 in the assay with UO-31 was > 100 µM (inactive).
With `C/C(=N\NC(=S)NC1CCCC1)c1ccccn1`, the GI50 was 0.65 µM (active) in the assay with A498; < 0.01 µM (active) in the assay with COLO 205; 0.9 µM (active) in the assay on DU-145; < 0.01 µM (active) in the assay on HL-60; < 0.01 µM (active) in the assay on HT-29; 36.6 µM (inactive) with Hs-578T. Besides, the GI50 was < 0.01 µM (active) in the assay on M14; 0.165 µM (active) in the assay on MDA-N; < 0.01 µM (active) in the assay with OVCAR-3; < 0.0218 µM (active) with OVCAR-8; < 0.01 µM (active) in the assay on PC-3; 0.569 µM (active) in the assay on SF-268. The GI50 with SF-539 was 1.02 µM (active); in the assay on SK-MEL-5, 0.205 µM (active); in the assay with SK-OV-3 it was 0.1 µM (active); in the assay on SNB-19, 1.05 µM (active); in the assay on SR, < 0.01 µM (active); in the assay on UACC-62, 0.2 µM (active). For the same compound, the GI50 in the assay with UO-31 was < 0.026 µM (active).
For the compound `CCSC1=N/C(=C\c2ccc(N(C)C)cc2)C(Cl)=N1`, the GI50 in the assay with A498, in the assay on COLO 205, in the assay with DU-145, in the assay with HL-60, in the assay on HT-29 and with Hs-578T was > 100 µM (inactive) in each case. For the same compound, the GI50 with M14, in the assay on MDA-N, in the assay on NCI-H522, in the assay on OVCAR-3, in the assay with OVCAR-8 and with PC-3 was > 100 µM (inactive) throughout. Also, the GI50 with SF-268, with SK-MEL-5, in the assay with SK-OV-3, with SNB-19, in the assay with UACC-62 and in the assay with UO-31 was > 100 µM (inactive) throughout.
With `COc1ccc(/C=C2\C(=O)N(C3OC(COC(C)=O)C(OC(C)=O)C(OC(C)=O)C3OC(C)=O)c3ccccc3N=C2N)cc1` (centres undefined), the GI50 was 28.2 µM (inactive) in the assay on A498; 15.6 µM (inactive) with COLO 205; 25.7 µM (inactive) in the assay with DU-145; 18.2 µM (inactive) in the assay with HL-60; 18.8 µM (inactive) with HT-29; 34.6 µM (inactive) with Hs-578T. In addition, the GI50 in the assay on M14 was 20.7 µM (inactive); in the assay on MDA-N, 4.48 µM (inactive); in the assay on OVCAR-3 it was 23.2 µM (inactive); in the assay with OVCAR-8, 19.4 µM (inactive); in the assay on PC-3, 23.7 µM (inactive); with SF-268, 32.5 µM (inactive). Moreover, the GI50 in the assay on SF-539 is 9.06 µM (inactive); with SK-MEL-5, 11.3 µM (inactive); in the assay with SK-OV-3, 27.6 µM (inactive); with SNB-19, 42.7 µM (inactive); in the assay with SR, 5.37 µM (inactive); in the assay on UACC-62 it was 17.5 µM (inactive). Also, in the assay with UO-31, the GI50 is 32.4 µM (inactive).
In the case of `CCOC(=O)C1(NC(=O)OC(C)(C)C)CCc2[nH]oc(=O)c2C1` (centres undefined), the GI50 in the assay on A498, in the assay with COLO 205, in the assay with DU-145, in the assay on HL-60, in the assay on HT-29 and in the assay on Hs-578T was > 100 µM (inactive) each time. For the same compound, the GI50 in the assay on M14, in the assay with MDA-N, in the assay with NCI-H522, with OVCAR-3, in the assay on OVCAR-8 and in the assay with PC-3 was > 100 µM (inactive) each time. For the same compound, the GI50 with SF-539, in the assay on SK-MEL-5, in the assay on SK-OV-3, in the assay on SNB-19, in the assay with UACC-62 and in the assay with UO-31 was > 100 µM (inactive) throughout.
Take `O=C1NC(N2CCOCC2)=N/C1=C\c1cccs1`: the GI50 in the assay with COLO 205, with DU-145, in the assay with HL-60, in the assay on HT-29, in the assay on Hs-578T and in the assay on M14 was > 100 µM (inactive) each time. Further, the GI50 in the assay on MDA-N, with NCI-H522, in the assay on OVCAR-3, with OVCAR-8, in the assay on PC-3 and in the assay with SF-268 was > 100 µM (inactive) throughout. For the same compound, the GI50 with SF-539, with SK-MEL-5, in the assay on SK-OV-3, in the assay on SNB-19, in the assay on SR and with UACC-62 was > 100 µM (inactive) each time. Further, the GI50 in the assay with UO-31 was > 100 µM (inactive).
Regarding `Cc1cc(OC(=O)Nc2cccc3ccccc23)c(C(C)C)cc1C(=S)Nc1ccccc1`, the GI50 with COLO 205 is 19.6 µM (inactive); in the assay with DU-145, 22.3 µM (inactive); in the assay on HL-60, 2.42 µM (inactive); in the assay with HT-29, 18.7 µM (inactive); in the assay on Hs-578T, 12.3 µM (inactive); with M14 it was 18.6 µM (inactive). The GI50 with MDA-N was 17.9 µM (inactive); in the assay with NCI-H522 it was 14.1 µM (inactive); with OVCAR-3, 16.1 µM (inactive); with OVCAR-8, 12.7 µM (inactive); in the assay on PC-3, 15.7 µM (inactive); in the assay with SF-268, 23.9 µM (inactive). In addition, the GI50 in the assay on SF-539 is 16.7 µM (inactive); in the assay on SK-MEL-5 it was 14.4 µM (inactive); with SK-OV-3, 10.4 µM (inactive); with SNB-19, 27.2 µM (inactive); with SR it was 6.49 µM (inactive); with UACC-62, 12.5 µM (inactive). In addition, the GI50 with UO-31 is 17.6 µM (inactive).
With `C=CC1CN(C(=O)OCC)N(C(=O)OCC)C1CCc1ccccc1` (centres undefined), the GI50 with COLO 205 is 71.6 µM (inactive); in the assay on DU-145, > 100 µM (inactive); in the assay on HL-60 it was 35.6 µM (inactive); in the assay with HT-29 it was > 100 µM (inactive); in the assay on Hs-578T, > 100 µM (inactive); in the assay with M14 it was > 100 µM (inactive). Besides, the GI50 with MDA-N was > 100 µM (inactive); in the assay on NCI-H522 it was 39.3 µM (inactive); in the assay with OVCAR-8 it was > 100 µM (inactive); in the assay on PC-3 it was 79.1 µM (inactive); in the assay on SF-268 it was > 100 µM (inactive); with SK-MEL-5 it was 64.1 µM (inactive). For the same compound, the GI50 with SK-OV-3 is > 100 µM (inactive); with SNB-19, > 100 µM (inactive); in the assay on SR, 65.9 µM (inactive); in the assay on UACC-62, > 100 µM (inactive); with UO-31, 74.1 µM (inactive).
In the case of `C=CCCC1(CC(Sc2ccccc2)P(=O)(c2ccccc2)c2ccccc2)OCCO1` (centres undefined), the GI50 in the assay with A498, with COLO 205, with DU-145, with HL-60, with HT-29 and in the assay on Hs-578T was > 10 µM (inactive) throughout. The GI50 in the assay on M14, in the assay on MDA-N, with OVCAR-3, with OVCAR-8, with PC-3 and with SF-268 was > 10 µM (inactive) throughout. The GI50 in the assay on SF-539, with SK-MEL-5, with SK-OV-3, in the assay on SNB-19, in the assay on SR and in the assay with UACC-62 was > 10 µM (inactive) each time. Also, the GI50 in the assay with UO-31 was > 10 µM (inactive).
Take `COC(=O)c1c(O)ccc2c1c1c(n2Cc2ccccc2)C(=O)c2ccccc2C1=O`: the GI50 in the assay with COLO 205 is 1.8 µM (inactive); in the assay with DU-145, 18.3 µM (inactive); in the assay with HL-60 it was 18.3 µM (inactive); in the assay on HT-29, 9.23 µM (inactive); in the assay with Hs-578T, 18.5 µM (inactive); in the assay with M14 it was 20.4 µM (inactive). The GI50 in the assay on MDA-N was 20.1 µM (inactive); in the assay with NCI-H522 it was 11 µM (inactive); in the assay on OVCAR-3, 16.7 µM (inactive); in the assay with OVCAR-8, 12.2 µM (inactive); with PC-3 it was 13.7 µM (inactive); with SF-268 it was 14.8 µM (inactive). Also, the GI50 with SF-539 was 15.6 µM (inactive); with SK-MEL-5 it was 16.1 µM (inactive); in the assay with SK-OV-3 it was 16.1 µM (inactive); in the assay with SNB-19, 14.9 µM (inactive); in the assay with SR, 15.6 µM (inactive); in the assay with UO-31, 10.3 µM (inactive).

Values taken from ChEMBL document CHEMBL1201862, “PubChem BioAssay data set” (2004).
